Measured values: patent US20260207602A1, “EGFR INHIBITORS” (Blueprint Medicines Corporation, priority 2022, published 2026)

Tests used:
[1] = target: T1, EGFR (d746-750) (Homo sapiens, UniProt P00533, DEL746-750); experiment: Biochemical EGFR inhibition assay (Caliper mobility shift), EGFR (d746-750); conditions: biochemical Caliper mobility shift assay, EGFR Exon 19-del enzyme; read-out: Enz EGFR Exon 19-del IC50
T1 construct: purchased SignalChem E10-122JG
Outline: (§1)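 Compounds were titrated against enzyme phosphorylating a 5-FAM peptide (2.5 µM) in 100 mM HEPES, pH 7.5, 10 mM MgCl2, 1 mM DTT. ATP was held at 1.0 mM or at Km, and reactions ran at 25 °C until 10–20% conversion before EDTA quench. Apparent IC50 values come from percent activity plotted against log concentration.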

[2] = target: T2, EGFR L858R (Homo sapiens, UniProt P00533, L858R); experiment: Biochemical EGFR inhibition assay (Caliper mobility shift), EGFR L858R; conditions: biochemical Caliper mobility shift assay, EGFR L858R enzyme; read-out: Enz EGFR L858R IC50
T2 construct: purchased SignalChem E10-122BG
T2 sequence (P00533 25-1210 L858R): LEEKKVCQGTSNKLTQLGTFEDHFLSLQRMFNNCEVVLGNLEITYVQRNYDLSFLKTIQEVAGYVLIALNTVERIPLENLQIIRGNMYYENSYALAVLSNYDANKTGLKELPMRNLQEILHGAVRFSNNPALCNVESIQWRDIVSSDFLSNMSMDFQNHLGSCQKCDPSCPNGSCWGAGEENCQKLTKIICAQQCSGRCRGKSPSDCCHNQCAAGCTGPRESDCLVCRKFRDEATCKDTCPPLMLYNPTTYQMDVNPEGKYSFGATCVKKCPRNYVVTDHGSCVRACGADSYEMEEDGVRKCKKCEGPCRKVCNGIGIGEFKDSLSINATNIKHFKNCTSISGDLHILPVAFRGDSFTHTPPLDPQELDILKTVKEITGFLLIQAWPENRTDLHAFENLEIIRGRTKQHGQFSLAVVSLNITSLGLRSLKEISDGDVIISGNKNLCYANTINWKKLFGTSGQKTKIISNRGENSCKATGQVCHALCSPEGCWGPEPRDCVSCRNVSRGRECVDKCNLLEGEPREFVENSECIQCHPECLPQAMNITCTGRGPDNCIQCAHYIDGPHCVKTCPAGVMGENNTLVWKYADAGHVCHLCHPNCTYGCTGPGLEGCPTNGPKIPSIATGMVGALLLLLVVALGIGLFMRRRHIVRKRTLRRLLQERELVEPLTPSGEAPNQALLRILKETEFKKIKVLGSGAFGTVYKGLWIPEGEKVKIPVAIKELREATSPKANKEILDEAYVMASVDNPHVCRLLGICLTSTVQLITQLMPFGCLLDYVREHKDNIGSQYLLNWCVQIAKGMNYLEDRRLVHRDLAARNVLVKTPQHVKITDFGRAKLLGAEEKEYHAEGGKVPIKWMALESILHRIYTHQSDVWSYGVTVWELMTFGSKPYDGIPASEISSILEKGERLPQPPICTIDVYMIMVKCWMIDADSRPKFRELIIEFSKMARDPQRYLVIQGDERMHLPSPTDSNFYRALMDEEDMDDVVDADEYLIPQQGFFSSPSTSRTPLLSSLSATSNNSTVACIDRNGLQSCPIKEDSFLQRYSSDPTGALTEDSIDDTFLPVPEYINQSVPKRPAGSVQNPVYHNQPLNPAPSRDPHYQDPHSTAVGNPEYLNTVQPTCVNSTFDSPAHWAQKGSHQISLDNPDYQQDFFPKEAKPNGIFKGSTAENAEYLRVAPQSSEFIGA
Outline: as §1

[3] = target: intracellular phosphorylation of EGFR (Tyr1068) in PC-9 cells (Homo sapiens, UniProt P00533, DEL746-750); experiment: PC-9 pEGFR AlphaLISA assay; assay type: cell-based; conditions: 4 hours incubation, read-out: Phos EGFR PC9 IC50
Chain of intracellular phosphorylation of EGFR (Tyr1068) in PC-9 cells (P00533 with tags, fused parts or gaps DEL746-750): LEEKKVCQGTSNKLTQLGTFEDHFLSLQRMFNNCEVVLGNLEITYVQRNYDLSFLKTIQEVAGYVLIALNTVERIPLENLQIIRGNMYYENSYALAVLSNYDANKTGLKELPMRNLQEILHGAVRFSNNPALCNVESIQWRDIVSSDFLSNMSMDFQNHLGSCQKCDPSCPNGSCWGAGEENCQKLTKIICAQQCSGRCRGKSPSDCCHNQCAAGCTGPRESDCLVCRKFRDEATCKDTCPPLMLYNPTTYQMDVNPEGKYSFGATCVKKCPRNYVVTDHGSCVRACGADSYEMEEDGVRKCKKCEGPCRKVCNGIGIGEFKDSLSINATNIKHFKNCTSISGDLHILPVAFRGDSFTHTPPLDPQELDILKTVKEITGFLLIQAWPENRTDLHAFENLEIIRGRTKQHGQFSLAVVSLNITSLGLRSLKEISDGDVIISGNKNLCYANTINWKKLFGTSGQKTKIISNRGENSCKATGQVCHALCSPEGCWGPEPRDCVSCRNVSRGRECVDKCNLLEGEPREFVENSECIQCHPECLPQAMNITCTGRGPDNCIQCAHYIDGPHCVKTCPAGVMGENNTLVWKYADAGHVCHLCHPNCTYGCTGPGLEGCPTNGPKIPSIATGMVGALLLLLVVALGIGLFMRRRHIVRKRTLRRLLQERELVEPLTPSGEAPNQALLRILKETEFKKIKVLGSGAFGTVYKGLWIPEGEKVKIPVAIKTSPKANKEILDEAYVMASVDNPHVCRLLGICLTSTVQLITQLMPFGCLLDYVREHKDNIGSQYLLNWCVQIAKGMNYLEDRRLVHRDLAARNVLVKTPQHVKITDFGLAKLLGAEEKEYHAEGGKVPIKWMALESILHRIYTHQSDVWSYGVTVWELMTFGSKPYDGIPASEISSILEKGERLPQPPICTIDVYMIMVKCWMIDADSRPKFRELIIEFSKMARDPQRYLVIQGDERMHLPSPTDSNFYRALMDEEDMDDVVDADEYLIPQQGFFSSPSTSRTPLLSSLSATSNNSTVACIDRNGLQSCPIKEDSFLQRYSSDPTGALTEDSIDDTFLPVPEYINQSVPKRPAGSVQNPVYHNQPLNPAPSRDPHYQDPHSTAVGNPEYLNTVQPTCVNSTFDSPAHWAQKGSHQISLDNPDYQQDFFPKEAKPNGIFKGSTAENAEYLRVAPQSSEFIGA
Outline: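 PC-9 cells (EGFR del746-750) in phenol-free DMEM/10% FBS, adhered overnight, then exposed to 10-point 4-fold compound dilutions for 4 h at 37 °C. Lysates assayed for pEGFR Tyr1068 by AlphaLISA SureFire Ultra; IC50 from percent pEGFR inhibition vs log concentration.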

T1 sequence (P00533 with tags, fused parts or gaps DEL746-750 limits assumed): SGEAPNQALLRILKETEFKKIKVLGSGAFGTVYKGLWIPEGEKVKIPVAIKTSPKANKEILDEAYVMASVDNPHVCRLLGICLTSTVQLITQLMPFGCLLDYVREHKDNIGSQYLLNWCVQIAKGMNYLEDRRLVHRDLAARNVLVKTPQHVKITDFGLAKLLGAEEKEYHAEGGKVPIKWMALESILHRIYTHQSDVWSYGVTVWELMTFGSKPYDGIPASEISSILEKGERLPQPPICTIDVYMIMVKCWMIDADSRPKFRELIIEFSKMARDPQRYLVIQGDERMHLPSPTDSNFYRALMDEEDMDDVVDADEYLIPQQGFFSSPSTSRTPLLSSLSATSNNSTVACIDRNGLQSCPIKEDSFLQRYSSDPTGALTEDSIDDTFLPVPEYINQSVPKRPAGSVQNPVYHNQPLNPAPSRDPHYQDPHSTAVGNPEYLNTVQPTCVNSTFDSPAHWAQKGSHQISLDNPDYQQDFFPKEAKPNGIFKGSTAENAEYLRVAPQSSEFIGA

Compound	IC50 [1] [nM]	IC50 [2] [nM]	IC50 [3] [nM]
C[C@@H](Oc1cc(N2CCN(C)CC2)cc2ncnc(Nc3ccc4ncsc4c3F)c12)C1COC1 (single isomer, unassigned) [Example 95]	≤ 10	10.1 to 50	10.1 to 50
CO[C@@H]1CCNC[C@H]1Oc1cc(-c2cnn(C)c2)cc2ncnc(Nc3ccc4ncsc4c3)c12 (single isomer, unassigned) [Example A38]	≤ 10	10.1 to 50	10.1 to 50
Cn1cc(-c2cc(OC3CCCOC3)c3c(Nc4ccc5ncsc5c4)ncnc3c2)cn1 (single isomer, unassigned) [Example 6]	≤ 10	≤ 10	≤ 10
Cn1cc(-c2cc(O[C@@H]3CC[C@@H]3O)c3c(Nc4ccc5ncsc5c4)ncnc3c2)cn1 (single isomer, unassigned) [Example A51]	≤ 10	≤ 10	≤ 10
C[C@@H](Oc1cc(-c2cn(C)n(C(F)F)c2=O)cc2ncnc(Nc3ccc4ncsc4c3)c12)C1COC1 (single isomer, unassigned) [Example 175]	≤ 10	≤ 10	10.1 to 50
COc1cc2ncnc(Nc3ccc4ncsc4c3)c2cc1N[C@H]1CCN(C)C[C@@H]1F [Example 393, N4-(benzo[d]thiazol-6-yl)-N6-((3S,4S)-3-fluoro-1-methylpiperidin-4-yl)-7-methoxyquinazoline-4,6-diamine]	≤ 10	≤ 10	≤ 10
CN1CCC(Nc2cc3c(Nc4ccc5ncsc5c4)ncnc3cc2-c2ccn(C)n2)CC1 [Example 258, N4-(benzo[d]thiazol-6-yl)-7-(1-methyl-1H-pyrazol-3-yl)-N6-(1-methylpiperidin-4-yl)quinazoline-4,6-diamine]	≤ 10	≤ 10	≤ 10
CN1CCC(Oc2cc(-c3cnn(C(F)F)c3)cc3ncnc(Nc4ccc5ncsc5c4)c23)CC1 [Example 189, N-(7-(1-(difluoromethyl)-1H-pyrazol-4-yl)-5-((1-methylpiperidin-4-yl)oxy)quinazolin-4-yl)benzo[d]thiazol-6-amine]	≤ 10	10.1 to 50	10.1 to 50
COc1nn(C)cc1-c1cc(OC2CCN(CC(F)F)CC2)c2c(Nc3ccc4ncsc4c3)ncnc2c1 [Example 386, N-(5-((1-(2,2-difluoroethyl)piperidin-4-yl)oxy)-7-(3-methoxy-1-methyl-1H-pyrazol-4-yl)quinazolin-4-yl)benzo[d]thiazol-6-amine]	≤ 10	≤ 10	≤ 10
C[C@@H]1CN(c2cc(O[C@H](C)C3COC3)c3c(Nc4ccc5ncsc5c4F)ncnc3c2)CCN1C (single isomer, unassigned) [Example 103]	≤ 10	10.1 to 50	≤ 10
Cn1cc(-c2cc(OC3CC3)c3c(Nc4ccc5ncsc5c4)ncnc3c2)cn1 [Example 259, N-(5-cyclopropoxy-7-(1-methyl-1H-pyrazol-4-yl)quinazolin-4-yl)benzo[d]thiazol-6-amine]	≤ 10	≤ 10	≤ 10
C[C@@H](Oc1cc(-c2cnn(C(C)(C)CO)c2)cc2ncnc(Nc3ccc4ncsc4c3)c12)C1COC1 (single isomer, unassigned) [Example 291]	≤ 10	≤ 10	≤ 10
Cn1cc(-c2cc(O[C@H]3CC[C@H](O)CC3)c3c(Nc4ccc5ncsc5c4)ncnc3c2)cn1 [Example 5, (1r,4r)-4-((4-(benzo[d]thiazol-6-ylamino)-7-(1-methyl-1H-pyrazol-4-yl)quinazolin-5-yl)oxy)cyclohexan-1-ol]	≤ 10	≤ 10	≤ 10
Cc1cn(-c2cc(O[C@H](C)C3COC3)c3c(Nc4ccc5ncsc5c4)ncnc3c2)c(=O)n1C [Example 202, (R)-1-(4-(benzo[d]thiazol-6-ylamino)-5-(1-(oxetan-3-yl)ethoxy)quinazolin-7-yl)-3,4-dimethyl-1,3-dihydro-2H-imidazol-2-one]	≤ 10	≤ 10	≤ 10
Cn1cc(-c2cc(O[C@H]3CCOC[C@@H]3F)c3c(Nc4ccc5ncsc5c4)ncnc3c2)cn1 (single isomer, unassigned) [Example 46]	≤ 10	≤ 10	≤ 10
Cn1cc(-c2cc(OC3COC3)c3c(Nc4ccc5ncsc5c4)ncnc3c2)c(OC(F)F)n1 [Example 250, N-(7-(3-(difluoromethoxy)-1-methyl-1H-pyrazol-4-yl)-5-(oxetan-3-yloxy)quinazolin-4-yl)benzo[d]thiazol-6-amine]	≤ 10	≤ 10	10.1 to 50

Compound	IC50 [1] [nM]	IC50 [2] [nM]	IC50 [3] [nM]
Cn1cc(-c2cc(O[C@@H]3C[C@@H](O)[C@@H](O)C3)c3c(Nc4ccc5ncsc5c4)ncnc3c2)cn1 (single isomer, unassigned) [Example A22]	≤ 10	≤ 10	10.1 to 50
Cn1cc(-c2cc(OCC3COC3)c3c(Nc4ccc5ncsc5c4)ncnc3c2)cn1 [Example 28, N-(7-(1-methyl-1H-pyrazol-4-yl)-5-(oxetan-3-ylmethoxy)quinazolin-4-yl)benzo[d]thiazol-6-amine]	≤ 10	≤ 10	10.1 to 50
Cn1cc(-c2cc(OCC(=O)N3CCC3)c3c(Nc4ccc5ncsc5c4)ncnc3c2)cn1 [Example 271, 1-(azetidin-1-yl)-2-((4-(benzo[d]thiazol-6-ylamino)-7-(1-methyl-1H-pyrazol-4-yl)quinazolin-5-yl)oxy)ethan-1-one]	≤ 10	≤ 10	10.1 to 50
C[C@H](CN(C)C)Oc1cc(N2CC3CC(C2)O3)cc2ncnc(Nc3ccc4ncsc4c3)c12 [Example 177, N-(7-(6-oxa-3-azabicyclo[3.1.1]heptan-3-yl)-5-(((R)-1-(dimethylamino)propan-2-yl)oxy)quinazolin-4-yl)benzo[d]thiazol-6-amine]	≤ 10	≤ 10	≤ 10
COc1cn(C)nc1-c1cc(O[C@H](C)C2COC2)c2c(Nc3ccc4ncsc4c3)ncnc2c1 (single isomer, unassigned) [Example 120]	≤ 10	≤ 10	≤ 10
C[C@@H](Oc1cc(N2CCN(C)[C@@H]3C[C@@H]32)cc2ncnc(Nc3ccc4ncsc4c3)c12)C1COC1 (single isomer, unassigned) [Example 299]	≤ 10	10.1 to 50	10.1 to 50
COc1nn(C)cc1-c1cc(O[C@H]2CN(C)C[C@H]2F)c2c(Nc3ccc4ncsc4c3)ncnc2c1 (single isomer, unassigned) [Example 373]	≤ 10	≤ 10	≤ 10
C[C@@H](Oc1c(F)c(-c2cnn(C)c2)cc2ncnc(Nc3ccc4ncsc4c3F)c12)C1COC1 (single isomer, unassigned) [Example A28]	≤ 10	10.1 to 50	> 50.1
Cn1cc(-c2cc(OC3CCOCC3)c3c(Nc4ccc5ncsc5c4)ncnc3c2)cn1 [Example 15, N-(7-(1-methyl-1H-pyrazol-4-yl)-5-((tetrahydro-2H-pyran-4-yl)oxy)quinazolin-4-yl)benzo[d]thiazol-6-amine]	≤ 10	≤ 10	≤ 10
Cn1cc(-c2cc(OCC3CCOC3)c3c(Nc4ccc5ncsc5c4)ncnc3c2)cn1 (stereo not drawn) [Example 413, N-(7-(1-methyl-1H-pyrazol-4-yl)-5-((tetrahydrofuran-3-yl)methoxy)quinazolin-4-yl)benzo[d]thiazol-6-amine]	≤ 10	≤ 10	10.1 to 50
Cn1cc(-c2cc(OCC(=O)N3CCOCC3)c3c(Nc4ccc5ncsc5c4)ncnc3c2)cn1 [Example 273, 2-((4-(benzo[d]thiazol-6-ylamino)-7-(1-methyl-1H-pyrazol-4-yl)quinazolin-5-yl)oxy)-1-morpholinoethan-1-one]	≤ 10	≤ 10	≤ 10
C[C@@H](Oc1cc(-c2cnn(C)c2)cc2ncnc(Nc3ccc4ncsc4c3)c12)C(CO)CO [Example A56, (R)-2-(1-((4-(benzo[d]thiazol-6-ylamino)-7-(1-methyl-1H-pyrazol-4-yl)quinazolin-5-yl)oxy)ethyl)propane-1,3-diol]	≤ 10	≤ 10	≤ 10
CN1CC[C@H](Oc2cc(-c3cn(C)nc3OC(F)F)cc3ncnc(Nc4ccc5ncsc5c4)c23)[C@@H](F)C1 (single isomer, unassigned) [Example 369]	≤ 10	10.1 to 50	10.1 to 50
Cn1cc(-c2cc(OCC#N)c3c(Nc4ccc5ncsc5c4)ncnc3c2)cn1 [Example 407, 2-((4-(benzo[d]thiazol-6-ylamino)-7-(1-methyl-1H-pyrazol-4-yl)quinazolin-5-yl)oxy)acetonitrile]	≤ 10	≤ 10	10.1 to 50
Cn1ccc(-c2cc3ncnc(Nc4ccc5ncsc5c4)c3cc2NC(=O)CCN2CCCCC2)n1 [Example A47, N-(4-(benzo[d]thiazol-6-ylamino)-7-(1-methyl-1H-pyrazol-3-yl)quinazolin-6-yl)-3-(piperidin-1-yl)propanamide]	≤ 10	≤ 10	≤ 10
